In PubChem BioAssay (NCI):
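A five-concentration, 48-hour dose response in 96-well plates underlies each endpoint, interpolated linearly between surrounding concentrations. At the TGI there is no net growth.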

Columns and labels:
Assay in all cases: NCI anticancer screen, dose series, 48 h
EKVX NSCLC = test system: EKVX NSCLC
U251 CNS = test system: U251 CNS
A498 renal = test system: A498 renal
KM20L2 colon = test system: KM20L2 colon
UACC-62 melanoma = test system: UACC-62 melanoma
SNB-75 CNS = test system: SNB-75 CNS
HOP-18 NSCLC = test system: HOP-18 NSCLC
OVCAR-4 ovarian = test system: OVCAR-4 ovarian
SK-OV-3 ovarian = test system: SK-OV-3 ovarian
SK-MEL-2 melanoma = test system: SK-MEL-2 melanoma
LOX IMVI melanoma = test system: LOX IMVI melanoma
OVCAR-8 ovarian = test system: OVCAR-8 ovarian
UO-31 renal = test system: UO-31 renal
NCI-H522 lung = test system: NCI-H522 lung
786-0 renal = test system: 786-0 renal
HCT-15 colon = test system: HCT-15 colon
DLD-1 colon = test system: DLD-1 colon
SW-620 colon = test system: SW-620 colon
SN12C renal = test system: SN12C renal
M19-MEL melanoma = test system: M19-MEL melanoma
COLO 205 colon = test system: COLO 205 colon
TK-10 renal = test system: TK-10 renal
MOLT-4 leukemia = test system: MOLT-4 leukemia
SNB-78 CNS = test system: SNB-78 CNS
SF-539 CNS = test system: SF-539 CNS
SF-295 CNS = test system: SF-295 CNS
SK-MEL-28 melanoma = test system: SK-MEL-28 melanoma
DMS 273 small cell lung = test system: DMS 273 small cell lung
DMS 114 small cell lung = test system: DMS 114 small cell lung
KM12 colon = test system: KM12 colon
NCI-H460 lung = test system: NCI-H460 lung
NCI-H23 lung = test system: NCI-H23 lung
K-562 leukemia = test system: K-562 leukemia
MALME-3M melanoma = test system: MALME-3M melanoma
HL-60(TB) leukemia = test system: HL-60(TB) leukemia
OVCAR-5 ovarian = test system: OVCAR-5 ovarian
UACC-257 melanoma = test system: UACC-257 melanoma
SR leukemia = test system: SR leukemia
RXF 393 renal = test system: RXF 393 renal
HT29 colon = test system: HT29 colon
IGROV1 ovarian = test system: IGROV1 ovarian
CCRF-CEM leukemia = test system: CCRF-CEM leukemia
SK-MEL-5 melanoma = test system: SK-MEL-5 melanoma
LXFL 529 NSCLC = test system: LXFL 529 NSCLC
SNB-19 CNS = test system: SNB-19 CNS
A549 NSCLC = test system: A549 NSCLC
HCT-116 colon = test system: HCT-116 colon
SF-268 CNS = test system: SF-268 CNS
RPMI-8226 leukemia = test system: RPMI-8226 leukemia
ACHN renal = test system: ACHN renal
OVCAR-3 ovarian = test system: OVCAR-3 ovarian
HOP-92 NSCLC = test system: HOP-92 NSCLC
HOP-62 NSCLC = test system: HOP-62 NSCLC
M14 melanoma = test system: M14 melanoma
HCC-2998 colon = test system: HCC-2998 colon
NCI-H226 lung = test system: NCI-H226 lung

SMILES: CN(C)CC/C(=N\Nc1c(F)c(F)c(F)c(F)c1F)c1ccccc1
- TGI (EKVX NSCLC): > 100 µM
- TGI (U251 CNS): > 100 µM
- TGI (A498 renal): > 100 µM
- TGI (KM20L2 colon): > 100 µM
- TGI (UACC-62 melanoma): > 100 µM
- TGI (SNB-75 CNS): 13.1 µM
- TGI (HOP-18 NSCLC): > 100 µM
- TGI (OVCAR-4 ovarian): > 100 µM
- TGI (SK-OV-3 ovarian): > 100 µM
- TGI (SK-MEL-2 melanoma): > 100 µM
- TGI (LOX IMVI melanoma): > 100 µM
- TGI (OVCAR-8 ovarian): > 100 µM
- TGI (UO-31 renal): 63.4 µM
- TGI (NCI-H522 lung): > 100 µM
- TGI (786-0 renal): > 100 µM
- TGI (HCT-15 colon): > 100 µM
- TGI (DLD-1 colon): > 100 µM
- TGI (SW-620 colon): > 100 µM
- TGI (SN12C renal): > 100 µM
- TGI (M19-MEL melanoma): > 100 µM
- TGI (COLO 205 colon): > 100 µM
- TGI (TK-10 renal): > 100 µM
- TGI (MOLT-4 leukemia): > 100 µM
- TGI (SNB-78 CNS): > 100 µM
- TGI (SF-539 CNS): > 100 µM
- TGI (SF-295 CNS): > 100 µM
- TGI (SK-MEL-28 melanoma): > 100 µM
- TGI (DMS 273 small cell lung): > 100 µM
- TGI (DMS 114 small cell lung): 79.2 µM
- TGI (KM12 colon): > 100 µM
- TGI (NCI-H460 lung): > 100 µM
- TGI (NCI-H23 lung): > 100 µM
- TGI (K-562 leukemia): > 100 µM
- TGI (MALME-3M melanoma): > 100 µM
- TGI (HL-60(TB) leukemia): 28.2 µM
- TGI (OVCAR-5 ovarian): > 100 µM
- TGI (UACC-257 melanoma): 80.6 µM
- TGI (SR leukemia): 47.9 µM
- TGI (RXF 393 renal): > 100 µM
- TGI (HT29 colon): > 100 µM
- TGI (IGROV1 ovarian): > 100 µM
- TGI (CCRF-CEM leukemia): 95.5 µM
- TGI (SK-MEL-5 melanoma): 28 µM
- TGI (LXFL 529 NSCLC): > 100 µM
- TGI (SNB-19 CNS): > 100 µM
- TGI (A549 NSCLC): > 100 µM
- TGI (HCT-116 colon): > 100 µM
- TGI (SF-268 CNS): > 100 µM
- TGI (RPMI-8226 leukemia): 70.5 µM
- TGI (ACHN renal): > 100 µM

SMILES: CCOC(=O)[C@@]12C(C)=CC(=O)O[C@]1(C)C[C@H]2C#N
- TGI (EKVX NSCLC): > 100 µM
- TGI (U251 CNS): > 100 µM
- TGI (A498 renal): > 100 µM
- TGI (KM20L2 colon): > 100 µM
- TGI (UACC-62 melanoma): > 100 µM
- TGI (SNB-75 CNS): > 100 µM
- TGI (HOP-18 NSCLC): > 100 µM
- TGI (OVCAR-4 ovarian): > 100 µM
- TGI (SK-OV-3 ovarian): > 100 µM
- TGI (SK-MEL-2 melanoma): > 100 µM
- TGI (LOX IMVI melanoma): > 100 µM
- TGI (OVCAR-8 ovarian): > 100 µM
- TGI (OVCAR-3 ovarian): > 100 µM
- TGI (UO-31 renal): > 100 µM
- TGI (786-0 renal): > 100 µM
- TGI (HCT-15 colon): > 100 µM
- TGI (DLD-1 colon): > 100 µM
- TGI (SW-620 colon): > 100 µM
- TGI (SN12C renal): > 100 µM
- TGI (M19-MEL melanoma): > 100 µM
- TGI (COLO 205 colon): > 100 µM
- TGI (TK-10 renal): > 100 µM
- TGI (MOLT-4 leukemia): > 100 µM
- TGI (SNB-78 CNS): > 100 µM
- TGI (HOP-92 NSCLC): > 100 µM
- TGI (SF-539 CNS): > 100 µM
- TGI (SF-295 CNS): > 100 µM
- TGI (SK-MEL-28 melanoma): > 100 µM
- TGI (DMS 273 small cell lung): > 100 µM
- TGI (DMS 114 small cell lung): > 100 µM
- TGI (KM12 colon): > 100 µM
- TGI (HOP-62 NSCLC): > 100 µM
- TGI (NCI-H460 lung): > 100 µM
- TGI (NCI-H23 lung): > 100 µM
- TGI (K-562 leukemia): > 100 µM
- TGI (M14 melanoma): > 100 µM
- TGI (MALME-3M melanoma): > 100 µM
- TGI (HL-60(TB) leukemia): > 100 µM
- TGI (HCC-2998 colon): > 100 µM
- TGI (UACC-257 melanoma): > 100 µM
- TGI (RXF 393 renal): > 100 µM
- TGI (HT29 colon): > 100 µM
- TGI (IGROV1 ovarian): > 100 µM
- TGI (CCRF-CEM leukemia): > 100 µM
- TGI (SK-MEL-5 melanoma): > 100 µM
- TGI (LXFL 529 NSCLC): > 100 µM
- TGI (SNB-19 CNS): > 100 µM
- TGI (NCI-H226 lung): > 100 µM
- TGI (A549 NSCLC): > 100 µM
- TGI (HCT-116 colon): > 100 µM
- TGI (SF-268 CNS): > 100 µM
- TGI (RPMI-8226 leukemia): > 100 µM
- TGI (ACHN renal): > 100 µM
